From PubChem BioAssay AID720512 (Broad Institute, 2013) come the findings set out here.

Molecules are shown by their SMILES. Activity calls are given as the source filed them. No rule for the calls is given here. A value given as a limit tells only on which side of the number the result lay.

The target of one test is Toxin B (TcdB) glycohydrolase, Clostridioides difficile 630. The test is described as follows: TcdB glycohydrolase inhibitors, dose response, biochemical, cherry-pick, plate reader (AID 720512). Particulars: recombinant TcdB glycohydrolase activity.
What is called AC50 is the concentration giving half of the maximal activity seen. As to `O=C(Nc1ccc(N2CCOCC2)c(Cl)c1)c1ccc(Cl)cc1`, the AC50 was > 39 µM (inactive). For the compound `CCC(=O)N1CC[C@@H]2[C@H]1c1cc(-c3ccccc3)ccc1N(C)[C@H]2CO`, the AC50 was > 42 µM (inactive).

Consider `O=C(NC(=S)Nc1ccc(N2CCOCC2)cc1)c1ccccc1`, for which the AC50 is > 39 µM (inactive).

Turning to `C[C@H](CO)N1C[C@H](C)[C@@H](CN(C)C(=O)Nc2ccc(C(F)(F)F)cc2)Oc2c(NS(=O)(=O)c3cccs3)cccc2C1=O`, the AC50 is > 39 µM (inactive). As for `CCOc1ccccc1/C=C/c1onc(C)c1S(=O)(=O)N1CCC(C(=O)NC)CC1`, the AC50 was > 39 µM (inactive). For `O=C(O)c1ccc(-c2ccc(O)c(F)c2)cc1`, the AC50 was > 39 µM (inactive). Turning to `CCc1cc(-c2n[nH]c(C)c2-c2nc(C)cs2)c(O)cc1OC`, the AC50 is > 39 µM (inactive). `Oc1ccc(-c2cn3ccccc3n2)cc1`: the AC50 was 12.1 µM. As to `CC1(C)Cc2c(sc3ncn4c(=S)[nH]nc4c23)CO1`, the AC50 was > 39 µM (inactive).

Staying with this test, now noted: recombinant TcdB glycohydrolase activity, at 19.5 µM (top of the series).
Take `c1ccc(Cc2nnc3n2N=C(c2ccccc2)CS3)cc1`: the “activity change, negative = inhibition” value was “inactive”. Turning to `FC(F)(F)c1cc(Cl)c2nc(-c3ccccc3)c(Cc3ccsc3)n2c1`, the “activity change, negative = inhibition” value is “inactive”. Turning to `Cc1[nH]c(=O)c(C#N)c2c1CCCC2`, the “activity change, negative = inhibition” value is “inactive”. Turning to `COc1cc(O)ccc1C(=O)CCc1ccc(O)cc1`, the “activity change, negative = inhibition” value is “inactive”. On the same count and under the same terms, then `COC(=O)C[C@@H]1CC[C@@H]2[C@H](COC[C@H](O)CN2C(=O)Nc2ccccc2OC)O1`, with “inactive”; and `O=S(=O)(c1ccccc1)N1CCN=C1SCc1ccccc1`, with “inactive”; and `Cc1ccc(S(=O)(=O)Oc2ccc(/C=N/NC(=O)c3nn(C)cc3[N+](=O)[O-])cc2)cc1`, with “inactive”. Same read-out and setting: then `O=C(C1CCOCC1)N1CC[C@@H]2[C@@H](CO)Nc3ccc(-c4ccc(F)cc4)cc3[C@@H]21`, with “inactive”; and `COc1ccc(CNC(=O)C2=CC(c3ccc(OC)c(OC)c3)=NS(=O)(=O)N2C)cc1`, with “inactive”; and `COc1cccc2sc(NNC(=O)C3COc4ccccc4O3)nc12` (configuration not stated), with “inactive”. For `Cc1ccc(Oc2c(CO)c(-c3ccccc3)nn2C)cc1`, the “activity change, negative = inhibition” value is “inactive”. `CCOC(=O)c1nnn(-c2nonc2N)c1-c1ccccc1Cl`: the “activity change, negative = inhibition” value was “inactive”. On to `O=C(NC(=S)Nc1ccc(O)cc1)c1ccccc1Cl`, for which the “activity change, negative = inhibition” value was “inactive”. As for `COc1cc(N=Nc2c(C)n(C)n(-c3ccccc3)c2=O)ccc1N`, the “activity change, negative = inhibition” value was “inactive”. Take `O=C(O)C1CCC(CN(Cc2cccc(Br)c2)C(=S)Nc2ccccc2F)CC1` (configuration not stated): the “activity change, negative = inhibition” value was “inactive”. Still for that read-out and setting: then `CCCCn1c(=S)[nH]c2c(=O)n(C)c(=O)n(C)c21`, with “inactive”; and `NC(=O)c1ccc(NC(=O)CSc2nnc(C3CC3)n2C2CC2)cc1`, with “inactive”. Turning to `Cc1nn(C2CC(O)C(O)C(CO)O2)c(=O)[nH]c1=O` (configuration not stated), the “activity change, negative = inhibition” value was “inactive”. Consider `O=C(C[C@@H]1CC[C@H]2[C@@H](COC[C@@H](O)CN2Cc2ccc(Oc3ccccc3)cc2)O1)Nc1nccs1`, for which the “activity change, negative = inhibition” value is “inactive”. In the case of `CS(=O)(=O)N1CCc2cc(C(=O)Nc3ccc(O)cc3)ccc21`, the “activity change, negative = inhibition” value is “inactive”. In the case of `CC(Sc1nccn1C)C(=O)c1c(N)n(C)c(=O)n(C)c1=O` (configuration not stated), the “activity change, negative = inhibition” value was “inactive”. Consider `COc1ccc(Br)cc1C(=O)Nc1ccc(O)cc1`, for which the “activity change, negative = inhibition” value was “inactive”.

On to `CCNC(=O)[C@H]1[C@H](CO)[C@H]2Cn3c(ccc(-c4ccccc4)c3=O)[C@H]2N1CC`, for which the “activity change, negative = inhibition” value is “inactive”. Regarding `O=C(O)c1ccccc1NC(=O)N1C[C@H]2C[C@@H](C1)c1cccc(=O)n1C2`, the “activity change, negative = inhibition” value is “inactive”.

Turning to `COc1cc(/C=C2\SC(=S)N(NC(=O)c3cccc(O)c3)C2=O)ccc1O`, the “activity change, negative = inhibition” value is “inactive”. Take `O=C1Nc2ccccc2C1c1ncc(C(F)(F)F)cc1Cl` (configuration not stated): the “activity change, negative = inhibition” value was “inactive”.

For `CSc1cccc(NC(=O)CCc2ccccc2)c1`, the “activity change, negative = inhibition” value is “inactive”.

`Nc1ccc2c(c1)[nH]c(=O)c1cc(N)ccc12`: the “activity change, negative = inhibition” value was “inactive”. As for `CNc1n[nH]c(=S)s1`, the “activity change, negative = inhibition” value was “inactive”. For `Cc1cc(C(=O)CSc2nnnn2-c2ccccc2)c(C)n1-c1ccc2c(c1)OCO2`, the “activity change, negative = inhibition” value is “inactive”.

For the compound `COc1ccc(/C=C/c2nc3ccccc3n2C)cc1`, the “activity change, negative = inhibition” value was “inactive”.

For `COc1ccc(C2=NS(=O)(=O)N(C)C(C(=O)NC(C)c3ccccc3)=C2)cc1` (configuration not stated), the “activity change, negative = inhibition” value was “inactive”. The same measure, in the same setting: then `CCOC(=O)Cn1c(C(F)(F)F)nc2nc(Cl)c(Cl)nc21`, with “inactive”. As for `COc1cc(C=NNC(=O)c2ccccc2-n2cccc2)ccc1O`, the “activity change, negative = inhibition” value is “inactive”.

For the compound `Cc1cccc(/C=C/c2onc(C)c2S(=O)(=O)N2CCC(C(=O)NC(C)C)CC2)c1`, the “activity change, negative = inhibition” value is “inactive”. `Cc1cccn2c(=S)[nH]nc12`: the “activity change, negative = inhibition” value was “inactive”. Turning to `CCCCCCCN1C(N(C)C)=NC[C@@H]1Cc1ccccc1`, the “activity change, negative = inhibition” value was “inactive”.

Consider `CC(=O)Nc1cccc(NC(=O)c2ccc(Br)cc2)c1`, for which the “activity change, negative = inhibition” value is “inactive”. For `COCCn1c(NC(=S)NC(=O)C2CC2)cc(=O)[nH]c1=O`, the “activity change, negative = inhibition” value is “inactive”. For `O=[N+]([O-])c1c(Nc2ccccc2O)ccc2nonc12`, the “activity change, negative = inhibition” value was “inactive”. On to `CNC(=O)N(O)C1N(/N=C/c2cccs2)C(=S)SC1(C)C` (configuration not stated), for which the “activity change, negative = inhibition” value was “inactive”.

For `CCOc1ccc(S(=O)(=O)NCc2ccccc2Cl)cc1C(N)=O`, the “activity change, negative = inhibition” value is “inactive”. `O=C(C[C@@H]1CC[C@@H]2[C@H](COC[C@H](O)CN2C(=O)c2ccccn2)O1)NC1CCC1`: the “activity change, negative = inhibition” value was “inactive”. `COc1ccc(C2=NS(=O)(=O)N(C)C(C(=O)NCc3ccccc3)=C2)cc1OC`: the “activity change, negative = inhibition” value is “inactive”. For the compound `CN(C)c1ccc(Cl)c(NC(N)=S)c1`, the “activity change, negative = inhibition” value was “inactive”. Regarding `CC(C)(Oc1ccc(Cl)cc1)C(=O)NC1CC1`, the “activity change, negative = inhibition” value was “inactive”. As to `O=C(NC(=S)NNC(=O)c1ccccc1F)c1cccnc1`, the “activity change, negative = inhibition” value is “inactive”. For the compound `CC(=O)Nc1ccc(OC(=O)Oc2ccc(NC(C)=O)cc2)cc1`, the “activity change, negative = inhibition” value is “inactive”. Consider `Oc1cc(O)cc(/C=C/c2ccc(O)c(O)c2)c1`, for which the “activity change, negative = inhibition” value was “inactive”.

For `COc1cc([N+](=O)[O-])ccc1NC(=O)Oc1ccc(NC(C)=O)cc1`, the “activity change, negative = inhibition” value was “inactive”.

Take `COc1ccc(NC(=O)C2CC(=O)N(c3ccccc3F)C2)cc1S(=O)(=O)N1CCCCC1` (configuration not stated): the “activity change, negative = inhibition” value is “inactive”. For the compound `Cc1cscc1-c1nc(NCC2CC2)nc2ccsc12`, the “activity change, negative = inhibition” value is “inactive”.

`CCn1cc(C(=O)O)c(=O)c2cc(F)c(N3CCN(C(=S)NC(=O)c4ccccc4Br)CC3)cc21`: the “activity change, negative = inhibition” value is “inactive”. For `CCOc1cc(NC(=S)NCC2CCCO2)c(OCC)cc1NC(=O)c1ccc(F)cc1` (configuration not stated), the “activity change, negative = inhibition” value was “inactive”. Turning to `COc1cc(OC)cc(C(=O)NNC(=O)CN2C(=O)NC(C)(c3ccc(C)cc3)C2=O)c1` (configuration not stated), the “activity change, negative = inhibition” value was “inactive”. For the compound `COc1ccc(CCNC(=O)CCCn2nc(C)n3ccnc3c2=O)cc1OC`, the “activity change, negative = inhibition” value is “inactive”.

Regarding `Cc1[nH]ccc2c1[nH]c1cc(=O)ccc12`, the “activity change, negative = inhibition” value is “inactive”. Take `COc1ccc(C2=NS(=O)(=O)N(C)C(C(=O)NCc3ccc4c(c3)OCO4)=C2)cc1OC`: the “activity change, negative = inhibition” value was “inactive”.

Take `COc1cccc(C(=O)Nc2ccc3c(c2)C(=O)N(C)[C@@H]2CC[C@H](CC(=O)NCCCN4CCOCC4)O[C@@H]2CO3)c1`: the “activity change, negative = inhibition” value is “inactive”. In the case of `CC(C)OC(=O)C(=O)NNc1ccccc1`, the “activity change, negative = inhibition” value is “inactive”. The same measure, in the same setting: then `C=CCNc1n[nH]c(=S)s1`, with “inactive”; and `CNC(=S)N/N=C/c1c(C(=O)OC)cnn1-c1ccc(F)cc1F`, with “inactive”. On to `CCCCN(C)c1c(C)nc2ccc(C(=O)NCc3cccs3)cn12`, for which the “activity change, negative = inhibition” value is “inactive”.

Turning to `Cc1ccc(C2=NS(=O)(=O)N(C)C(C(=O)NCc3ccccc3)=C2)cc1`, the “activity change, negative = inhibition” value was “inactive”. Consider `O=C(Cc1ccccc1)NNC(=S)NC(=O)c1cccnc1`, for which the “activity change, negative = inhibition” value is “inactive”. For `CCC(=O)Nc1ccc2c(c1)OC[C@@H](C)N(C(=O)NC(C)C)C[C@@H](C)[C@@H](OC)CN(C)C2=O`, the “activity change, negative = inhibition” value was “inactive”.

In the case of `COc1ccc(C(O)(C(C)C)C(CN2CCOCC2)c2ccccc2)cc1` (configuration not stated), the “activity change, negative = inhibition” value is “inactive”. In the case of `Clc1cccc(-c2ccc3ncnc(NCc4cccs4)c3c2)c1`, the “activity change, negative = inhibition” value is “inactive”. Take `CC(C)c1cc(CN2CCN(Cc3ccc(F)c(F)c3)C(CCO)C2)[nH]n1` (configuration not stated): the “activity change, negative = inhibition” value was “inactive”.

On to `CC1C(=O)C(C)C(c2ccc([N+](=O)[O-])cc2)NC1c1ccc([N+](=O)[O-])cc1` (configuration not stated), for which the “activity change, negative = inhibition” value was “inactive”. Turning to `CN1CCN(C(CNC(=O)c2ccc(Br)o2)c2ccc(F)cc2)CC1` (configuration not stated), the “activity change, negative = inhibition” value was “inactive”.

Staying with this test, now noted: recombinant TcdB glycohydrolase activity, at 21 µM (top of the series).
As to `CN(C)CC(=O)N1CC[C@@H]2[C@H]1c1cc(-c3ccccc3)ccc1N(C)[C@H]2CO`, the “activity change, negative = inhibition” value was “inactive”. Regarding `C[C@@H]1CN([C@@H](C)CO)C(=O)c2c(c3ccccc3n2C)-c2ccccc2CO[C@@H]1CN(C)C`, the “activity change, negative = inhibition” value is “inactive”.
